Laboratory results from PubChem BioAssay AID1745844 (Carcinogenic Potency Database (CPDB), 2022).
“And” between values parts separate entries of the source, which are not always exact repeats. Identical values can stand only once. The source made the active and inactive calls. No rule for the calls is given here.

Tested on: rodent lifetime carcinogenesis bioassay, tumor incidence TD50
Test: carcinogenic potency in animals, long-term in vivo studies, CPDB compilation (AID 1745844)

## O=C1OC(c2ccc(O)cc2)(c2ccc(O)cc2)c2ccccc21
mouse, strain B6C3F1, females, in feed, site: all sites + ovary, lesion: histiocytic sarcoma + lymphoma malignant, thymic origin + malignant lymphoma + sex-cord stromal tumor, benign, bilateral + sex-c, dosed 105 weeks, study length 105 weeks
  TD50: 508 mg/kg/day
mouse, strain B6C3F1, females, in feed, site: all sites, lesion: histiocytic sarcoma, dosed 105 weeks, study length 105 weeks
  TD50: 4080 mg/kg/day
mouse, strain B6C3F1, females, in feed, site: all sites, lesion: lymphoma malignant, thymic origin, dosed 105 weeks, study length 105 weeks
  TD50: 1610 mg/kg/day
mouse, strain B6C3F1, females, in feed, site: all sites, lesion: malignant lymphoma, dosed 105 weeks, study length 105 weeks
  TD50: 748 mg/kg/day
mouse, strain B6C3F1, females, in feed, site: any site (literature study), lesion: several types, types named in the paper, dosed 105 weeks, study length 105 weeks
  TD50: 1740 mg/kg/day
mouse, strain B6C3F1, females, in feed, site: lung, lesion: alveolar/bronchiolar adenoma + alveolar/bronchiolar carcinoma, dosed 105 weeks, study length 105 weeks
  TD50: 9190 mg/kg/day
mouse, strain B6C3F1, females, in feed, site: ovary, lesion: sex-cord stromal tumor, benign, bilateral + sex-cord stromal tumor, benign, dosed 105 weeks, study length 105 weeks
  TD50: 1900 mg/kg/day
mouse, strain B6C3F1, males, in feed, site: all sites, lesion: histiocytic sarcoma + lymphoma malignant, thymic origin, dosed 104 weeks, study length 104 weeks
  TD50: 1150 mg/kg/day
mouse, strain B6C3F1, males, in feed, site: all sites, lesion: histiocytic sarcoma, dosed 104 weeks, study length 104 weeks
  TD50: 2680 mg/kg/day
mouse, strain B6C3F1, males, in feed, site: all sites, lesion: lymphoma malignant, thymic origin, dosed 104 weeks, study length 104 weeks
  TD50: 2740 mg/kg/day
mouse, strain B6C3F1, males, in feed, site: any site (literature study), lesion: several types, types named in the paper, dosed 104 weeks, study length 104 weeks
  TD50: 32200 mg/kg/day
mouse, strain B6C3F1, males, in feed, site: lung, lesion: alveolar/bronchiolar adenoma + alveolar/bronchiolar carcinoma, dosed 104 weeks, study length 104 weeks
  TD50: 8060 mg/kg/day
mouse, strain B6C3F1, males, in feed, site: spleen, lesion: hemangiosarcoma, dosed 104 weeks, study length 104 weeks
  TD50: 1640 mg/kg/day
mouse, strain BALB/c, males, in feed, site: liver, lesion: hepatoma, dosed 60 weeks, study length 104 weeks
  TD50: 20800 mg/kg/day (inactive)
mouse, strain BALB/c, males, in feed, site: lung, lesion: one or several types, types not named, dosed 60 weeks, study length 104 weeks
  carcinogen call: negative (inactive)
mouse, strain C57BL/6J, males, by gavage, site: liver, lesion: hepatoma, dosed 69 weeks, study length 104 weeks
  carcinogen call: negative (inactive)
mouse, strain C57BL/6J, males, by gavage, site: lung, lesion: one or several types, types not named, dosed 69 weeks, study length 104 weeks
  carcinogen call: negative (inactive)
rat, strain Fischer 344, females, in feed, site: adrenal medulla, lesion: pheochromocytoma benign, bilateral + pheochromocytoma, benign, dosed 105 weeks, study length 105 weeks
  TD50: 4160 mg/kg/day
rat, strain Fischer 344, females, in feed, site: adrenal medulla, lesion: pheochromocytoma benign, bilateral + pheochromocytoma, malignant + pheochromocytoma, benign, dosed 105 weeks, study length 105 weeks
  TD50: 3530 mg/kg/day
rat, strain Fischer 344, males, in feed, site: adrenal medulla + kidney, lesion: pheochromocytoma benign, bilateral + pheochromocytoma, benign + tubule adenoma + tubule carcinoma, dosed 104 weeks, study length 104 weeks
  TD50: 250 mg/kg/day
rat, strain Fischer 344, males, in feed, site: adrenal medulla, lesion: pheochromocytoma benign, bilateral + pheochromocytoma, benign, dosed 104 weeks, study length 104 weeks
  TD50: 517 mg/kg/day
rat, strain Fischer 344, males, in feed, site: adrenal medulla, lesion: pheochromocytoma benign, bilateral + pheochromocytoma, malignant + pheochromocytoma malignant, bilateral + pheochromocytoma, b, dosed 104 weeks, study length 104 weeks
  TD50: 533 mg/kg/day
rat, strain Fischer 344, males, in feed, site: any site (literature study), lesion: several types, types named in the paper, dosed 104 weeks, study length 104 weeks
  TD50: 3540 mg/kg/day
rat, strain Fischer 344, males, in feed, site: kidney, lesion: tubule adenoma + tubule carcinoma, dosed 104 weeks, study length 104 weeks
  TD50: 3220 mg/kg/day and 975 mg/kg/day
rat, strain Fischer 344, males, in feed, site: kidney, lesion: tubule adenoma, dosed 104 weeks, study length 104 weeks
  TD50: 4050 mg/kg/day and 1040 mg/kg/day
rat, strain Fischer 344, males, in feed, site: liver, lesion: hepatocellular adenoma + hepatoblastoma + hepatocellular carcinoma, dosed 104 weeks, study length 104 weeks
  TD50: 118000 mg/kg/day
rat, strain Fischer 344, males, in feed, site: thyroid gland, lesion: follicular-cell adenoma, bilateral + follicular-cell adenoma, dosed 104 weeks, study length 104 weeks
  TD50: 6990 mg/kg/day

## CCOc1ccc(NC(C)=O)cc1N
mouse, strain B6C3F1, females, in feed, site: any site (literature study), lesion: several types, types named in the paper, dosed 78 weeks, study length 93 weeks
  TD50: 569 mg/kg/day
mouse, strain B6C3F1, females, in feed, site: lung, lesion: alveolar/bronchiolar adenoma + alveolar/bronchiolar carcinoma, dosed 78 weeks, study length 93 weeks
  TD50: 8630 mg/kg/day
mouse, strain B6C3F1, females, in feed, site: pituitary gland, lesion: adenoma, NOS + carcinoma, NOS + chromophobe adenoma, dosed 78 weeks, study length 93 weeks
  TD50: 1050 mg/kg/day (inactive)
mouse, strain B6C3F1, males, in feed, site: liver, lesion: hepatocellular adenoma + hepatocellular carcinoma + neoplastic nodule, dosed 78 weeks, study length 93 weeks
  TD50: 8990 mg/kg/day
mouse, strain B6C3F1, males, in feed, site: thyroid gland, lesion: adenocarcinoma, NOS + adenoma, NOS + follicular-cell adenoma + follicular-cell carcinoma, dosed 78 weeks, study length 93 weeks
  TD50: 2070 mg/kg/day
mouse, strain B6C3F1, males, in feed, site: thyroid gland, lesion: adenocarcinoma, NOS + follicular-cell carcinoma, dosed 78 weeks, study length 93 weeks
  TD50: 4020 mg/kg/day
mouse, strain B6C3F1, males, in feed, site: thyroid gland, lesion: follicular-cell carcinoma, dosed 78 weeks, study length 93 weeks
  TD50: 3770 mg/kg/day
rat, strain Fischer 344, females, in feed, site: adrenal gland, lesion: cortical adenoma + cortical carcinoma, dosed 78 weeks, study length 106 weeks
  TD50: 415 mg/kg/day (inactive)
rat, strain Fischer 344, females, in feed, site: liver, lesion: hepatocellular adenoma + hepatocellular carcinoma + neoplastic nodule, dosed 78 weeks, study length 106 weeks
  TD50: 717 mg/kg/day
rat, strain Fischer 344, males, in feed, site: thyroid gland, lesion: c-cell carcinoma, dosed 78 weeks, study length 106 weeks
  TD50: 610 mg/kg/day (inactive)

## NNC(=O)c1ccncc1
hamster, strain Syrian Golden, females, in drinking water, site: forestomach, lesion: papilloma, dosed 121 weeks, study length 121 weeks
  TD50: 575 mg/kg/day (inactive)
hamster, strain Syrian Golden, males, in drinking water, site: liver, lesion: hemangioma, dosed 130 weeks, study length 130 weeks
  carcinogen call: negative (inactive)
mouse, strain A, males, by gavage, site: liver, lesion: carcinoma, dosed 79 weeks, study length 79 weeks
  TD50: 159 mg/kg/day
mouse, strain A, males, by gavage, site: lung, lesion: carcinoma, dosed 79 weeks, study length 79 weeks
  TD50: 206 mg/kg/day
mouse, strain A, males, by gavage, site: several sites, sites named in the paper, lesion: carcinoma, dosed 79 weeks, study length 79 weeks
  TD50: 219 mg/kg/day
mouse, strain AKR, females, in drinking water, site: lung, lesion: one or several types, types not named, dosed 70 weeks, study length 70 weeks
  TD50: 89.6 mg/kg/day (inactive)
mouse, strain AKR, males, in drinking water, site: liver, lesion: hemangioma, dosed 59 weeks, study length 59 weeks
  carcinogen call: negative (inactive)
mouse, strain AKR, males, in drinking water, site: lung, lesion: one or several types, types not named, dosed 59 weeks, study length 59 weeks
  TD50: 202 mg/kg/day (inactive)
mouse, strain C3H (MTV+), females, in drinking water, site: lung, lesion: adenoma, dosed 72 weeks, study length 72 weeks
  TD50: 755 mg/kg/day
mouse, strain C3H (MTV+), males, in drinking water, site: lung, lesion: adenoma, dosed 72 weeks, study length 72 weeks
  TD50: 219 mg/kg/day
mouse, strain CBA/Cb/Se, females, by gavage, site: liver, lesion: hepatoma, dosed 36 weeks, study length 84 weeks
  TD50: 187 mg/kg/day (inactive)
mouse, strain CBA/Cb/Se, females, by gavage, site: lung, lesion: several types, types named in the paper, dosed 36 weeks, study length 84 weeks
  TD50: 11.2 mg/kg/day
mouse, strain CBA/Cb/Se, males, by gavage, site: liver, lesion: hepatoma, dosed 36 weeks, study length 74 weeks
  TD50: 165 mg/kg/day (inactive)
mouse, strain CBA/Cb/Se, males, by gavage, site: lung, lesion: several types, types named in the paper, dosed 36 weeks, study length 74 weeks
  TD50: 12.2 mg/kg/day
mouse, strain Not specified, both sexes, by gavage, site: any site (literature study), lesion: several types, types named in the paper, dosed 52 weeks, study length 52 weeks
  TD50: 14.1 mg/kg/day
mouse, strain Not specified, both sexes, by gavage, site: lung, lesion: adenoma, dosed 52 weeks, study length 52 weeks
  TD50: 19.3 mg/kg/day
mouse, strain Not specified, both sexes, by gavage, site: mammary gland, lesion: adenocarcinoma, dosed 52 weeks, study length 52 weeks
  TD50: 80.9 mg/kg/day
mouse, strain Swiss albino, females, in drinking water, site: liver, lesion: hemangioma, dosed 80 weeks, study length 80 weeks
  carcinogen call: negative (inactive)
mouse, strain Swiss albino, females, in drinking water, site: liver, lesion: hemangioma, dosed 101 weeks, study length 106 weeks
  carcinogen call: negative (inactive)
mouse, strain Swiss albino, females, in drinking water, site: lung, lesion: adenocarcinoma, dosed 80 weeks, study length 80 weeks
  TD50: 435 mg/kg/day
mouse, strain Swiss albino, females, in drinking water, site: lung, lesion: adenoma, dosed 80 weeks, study length 80 weeks
  TD50: 189 mg/kg/day
mouse, strain Swiss albino, females, in drinking water, site: lung, lesion: adenoma, dosed 101 weeks, study length 106 weeks
  TD50: 386 mg/kg/day
mouse, strain Swiss albino, females, in drinking water, site: lung, lesion: several types, types named in the paper, dosed 80 weeks, study length 80 weeks
  TD50: 153 mg/kg/day
mouse, strain Swiss albino, males, in drinking water, site: liver, lesion: hemangioma, dosed 80 weeks, study length 80 weeks
  carcinogen call: negative (inactive)
mouse, strain Swiss albino, males, in drinking water, site: lung, lesion: adenoma, dosed 80 weeks, study length 80 weeks
  TD50: 124 mg/kg/day
mouse, strain Swiss albino, males, in drinking water, site: lung, lesion: adenoma, dosed 86 weeks, study length 87 weeks
  TD50: 104 mg/kg/day
mouse, strain Swiss, both sexes, by gavage, site: lung, lesion: adenocarcinoma, dosed 95 weeks, study length 95 weeks
  TD50: 28.8 mg/kg/day
mouse, strain Swiss, both sexes, by gavage, site: lung, lesion: one or several types, types not named, dosed 97 weeks, study length 97 weeks
  TD50: 24.5 mg/kg/day
mouse, strain Swiss, females, by gavage, site: liver, lesion: carcinoma, dosed 81 weeks, study length 83 weeks
  TD50: 88.6 mg/kg/day
mouse, strain Swiss, females, by gavage, site: lung, lesion: carcinoma, dosed 81 weeks, study length 83 weeks
  TD50: 88.6 mg/kg/day
mouse, strain Swiss, females, by gavage, site: lung, lesion: carcinoma, dosed 83 weeks, study length 83 weeks
  TD50: 53.1 mg/kg/day
mouse, strain Swiss, females, by gavage, site: several sites, sites named in the paper, lesion: carcinoma, dosed 81 weeks, study length 83 weeks
  TD50: 39.9 mg/kg/day
mouse, strain Swiss, females, by gavage, site: several sites, sites named in the paper, lesion: carcinoma, dosed 83 weeks, study length 83 weeks
  TD50: 53.1 mg/kg/day
mouse, strain Swiss, males, by gavage, site: liver, lesion: carcinoma, dosed 79 weeks, study length 79 weeks
  TD50: 88.8 mg/kg/day and 71.3 mg/kg/day
mouse, strain Swiss, males, by gavage, site: liver, lesion: carcinoma, dosed 85 weeks, study length 85 weeks
  TD50: 211 mg/kg/day
mouse, strain Swiss, males, by gavage, site: lung, lesion: carcinoma, dosed 79 weeks, study length 79 weeks
  TD50: 41.1 mg/kg/day and 39.2 mg/kg/day
mouse, strain Swiss, males, by gavage, site: lung, lesion: carcinoma, dosed 85 weeks, study length 85 weeks
  TD50: 28.9 mg/kg/day
mouse, strain Swiss, males, by gavage, site: several sites, sites named in the paper, lesion: carcinoma, dosed 79 weeks, study length 79 weeks
  TD50: 25.7 mg/kg/day and 21.2 mg/kg/day
mouse, strain Swiss, males, by gavage, site: several sites, sites named in the paper, lesion: carcinoma, dosed 85 weeks, study length 85 weeks
  TD50: 24 mg/kg/day
rat, strain Cb/Sc, females, in drinking water, site: mammary gland, lesion: fibroadenoma, dosed 48 weeks, study length 64 weeks
  TD50: 120 mg/kg/day
rat, strain Cb/Sc, males, in drinking water, site: liver, lesion: one or several types, types not named, dosed 48 weeks, study length 84 weeks
  TD50: 199 mg/kg/day
rat, strain Cb/Sc, males, in drinking water, site: lung, lesion: several types, types named in the paper, dosed 48 weeks, study length 84 weeks
  TD50: 1070 mg/kg/day
